# Test: recombinant UMI read abundance after kanamycin selection (control-corrected) (log10(CPM+1)); higher = more efficient recombination; extreme values may be limits of the assay; sequences stand for … in AGTGCAGAGAAAATCGGCCAGTTTTCTCTGCCTGCAGTCCGCATGCCGTGGGACCCCTTGGGTTCTAACCTGTTGCCTAGATTTATGCAGCGGACTGCCTTTCTCCCAAAGTGATAAACCGG…AGGTTGGTTTCACT; site = the 11-nt donor
# Procedure, shortened: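 Values, expressed as log10(CPM+1), derive from recombinant UMI counts converted to CPM, averaged across replicates and scaled by control-derived factors. Plating was with IPTG (0.07 mM) plus kanamycin or unselected, two replicates each. The screen pooled donor and donor-binding-loop pairs for the IS621 bridge recombinase in Escherichia coli.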
# 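Note: IS621 bridge recombinase in Escherichia coli cells against a fixed T5 target plasmid.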
row,Sequence,recombinant UMI read abundance (log10)
1,ACTCGTGCATGGACCGGTTTTCCCGGTAATCCGTATTTGGT (site ACTAGTGCTAC),0.43
2,ACTCGTGCATGGACCGGTTTTCCCGGTAATCCGTATTTGGT (site ACTCGTGCTAC),1.07
3,ACTCGTGCATGGACCGGTTTTCCCGGTAATCCGTATTTGGT (site ACTGGTGCTAC),0.222
4,ACTCGTGCATGGACCGGTTTTCCCGGTAATCCGTATTTGGT (site ACTTGTGCTAC),0.839
5,ACTCTCCCATGGACCGGTTTTCCCGGTAATCCGTATTTGAT (site ACTCTCCCTAT),0.628
6,ACTCTCTCATGGACCGGTTTTCCCGGTAATCCGTATTTGCA (site ACTCTCTCTTG),3.19
7,ACTGATGCATGGACCGGTTTTCCCGGTAATCCGTATTTGGC (site ACTGATGCTGC),1.81
8,ACTGCTACATGGACCGGTTTTCCCGGTAATCCGTATTTGAA (site ACTGCTACTTT),0.749
9,ACTGGTGCATGGACCGGTTTTCCCGGTAATCCGTATTTGGT (site ACTAGTGCTAC),1
10,ACTGGTGCATGGACCGGTTTTCCCGGTAATCCGTATTTGGT (site ACTCGTGCTAC),0.414
11,ACTGGTGCATGGACCGGTTTTCCCGGTAATCCGTATTTGGT (site ACTGGTGCTAC),1.69
12,ACTGGTGCATGGACCGGTTTTCCCGGTAATCCGTATTTGGT (site ACTTGTGCTAC),0.401
13,ACTGTAACATGGACCGGTTTTCCCGGTAATCCGTATTTGCT (site AATGTAACTAG),0.987
14,ACTGTAACATGGACCGGTTTTCCCGGTAATCCGTATTTGCT (site ACTGTAACTAG),2.23
15,ACTGTAACATGGACCGGTTTTCCCGGTAATCCGTATTTGCT (site AGTGTAACTAG),1.12
16,ACTGTAACATGGACCGGTTTTCCCGGTAATCCGTATTTGCT (site ATTGTAACTAG),1.55
17,ACTGTGTCATGGACCGGTTTTCCCGGTAATCCGTATTTGCA (site ACAGTATCTTG),2.5
18,ACTGTGTCATGGACCGGTTTTCCCGGTAATCCGTATTTGCA (site ACTGTGTCTTG),2.89
19,ACTTAACCATGGACCGGTTTTCCCGGTAATCCGTATTTGCA (site ACTTAACCTTG),0
20,ACTTAGACATGGACCGGTTTTCCCGGTAATCCGTATTTGGG (site ACATAGACTCC),0.0123
21,ACTTAGACATGGACCGGTTTTCCCGGTAATCCGTATTTGGG (site ACCTAGACTCC),0.00452
22,ACTTAGACATGGACCGGTTTTCCCGGTAATCCGTATTTGGG (site ACGTAGACTCC),0.00655
23,ACTTAGACATGGACCGGTTTTCCCGGTAATCCGTATTTGGG (site ACTTAGACTCC),0.0876
24,ACTTCGTCATGGACCGGTTTTCCCGGTAATCCGTATTTGTG (site ACTTCGTCTCA),0.306
25,ACTTCTACATGGACCGGTTTTCCCGGTAATCCGTATTTGTG (site ACATCTACTCA),0.0153

row,Sequence,recombinant UMI read abundance (log10)
1,ACTTCTACATGGACCGGTTTTCCCGGTAATCCGTATTTGTG (site ACCTCTACTCA),0.00536
2,ACTTCTACATGGACCGGTTTTCCCGGTAATCCGTATTTGTG (site ACGTCTACTCA),0.0444
3,ACTTCTACATGGACCGGTTTTCCCGGTAATCCGTATTTGTG (site ACTTCTACTCA),0.179
4,ACTTGTGCATGGACCGGTTTTCCCGGTAATCCGTATTTGGT (site ACTAGTGCTAC),0.652
5,ACTTGTGCATGGACCGGTTTTCCCGGTAATCCGTATTTGGT (site ACTCGTGCTAC),0.73
6,ACTTGTGCATGGACCGGTTTTCCCGGTAATCCGTATTTGGT (site ACTGGTGCTAC),0.211
7,ACTTGTGCATGGACCGGTTTTCCCGGTAATCCGTATTTGGT (site ACTTGTGCTAC),1.18
8,ACTTTACCATGGACCGGTTTTCCCGGTAATCCGTATTTGCT (site ACTTTACCTAG),0.431
9,ACTTTATCATGGACCGGTTTTCCCGGTAATCCGTATTTGCA (site ACAGTATCTTG),2.35
10,ACTTTATCATGGACCGGTTTTCCCGGTAATCCGTATTTGCA (site ACTTTATCTTG),1.85
11,AGAAACACATGGACCGGTTTTCCCGGTAATCCGTATTTGTC (site AGAAACACTGA),2.8
12,AGAAAGACATGGACCGGTTTTCCCGGTAATCCGTATTTGCT (site AGAAAGACTAG),2.1
13,AGAAAGACATGGACCGGTTTTCCCGGTAATCCGTATTTGCT (site AGAAAGCCTAG),0.934
14,AGAAAGACATGGACCGGTTTTCCCGGTAATCCGTATTTGCT (site AGAAAGGCTAG),1.02
15,AGAAAGACATGGACCGGTTTTCCCGGTAATCCGTATTTGCT (site AGAAAGTCTAG),0.572
16,AGAAAGGCATGGACCGGTTTTCCCGGTAATCCGTATTTGCA (site AGAAAGGCTAG),0
17,AGAAAGGCATGGACCGGTTTTCCCGGTAATCCGTATTTGCA (site AGAAAGGCTCG),0.889
18,AGAAAGGCATGGACCGGTTTTCCCGGTAATCCGTATTTGCA (site AGAAAGGCTGG),0
19,AGAAAGGCATGGACCGGTTTTCCCGGTAATCCGTATTTGCA (site AGAAAGGCTTG),1.9
20,AGAAATGCATGGACCGGTTTTCCCGGTAATCCGTATTTGCT (site AGAAAAGCTAG),1.53
21,AGAAATGCATGGACCGGTTTTCCCGGTAATCCGTATTTGCT (site AGAAACGCTAG),1.8
22,AGAAATGCATGGACCGGTTTTCCCGGTAATCCGTATTTGCT (site AGAAAGGCTAG),0
23,AGAAATGCATGGACCGGTTTTCCCGGTAATCCGTATTTGCT (site AGAAATGCTAG),2.23
24,AGAAATTCATGGACCGGTTTTCCCGGTAATCCGTATTTGCG (site AGAAATTCTCG),1.94
25,AGAACCGCATGGACCGGTTTTCCCGGTAATCCGTATTTGAC (site AGAACCGCTGT),2.35

row,Sequence,recombinant UMI read abundance (log10)
1,AGAACGGCATGGACCGGTTTTCCCGGTAATCCGTATTTGCG (site AGAACGGCTCG),1.75
2,AGAACTACATGGACCGGTTTTCCCGGTAATCCGTATTTGGG (site AGAACTACTCC),0.434
3,AGAAGCACATGGACCGGTTTTCCCGGTAATCCGTATTTGTC (site AGAAGCACTGA),3.13
4,AGAAGCCCATGGACCGGTTTTCCCGGTAATCCGTATTTGTC (site AGAAGCCCTGA),1.43
5,AGAAGGCCATGGACCGGTTTTCCCGGTAATCCGTATTTGAC (site AAAAGGCCTGT),0
6,AGAAGGCCATGGACCGGTTTTCCCGGTAATCCGTATTTGAC (site ACAAGGCCTGT),0
7,AGAAGGCCATGGACCGGTTTTCCCGGTAATCCGTATTTGAC (site AGAAGGCCTGT),0
8,AGAAGGCCATGGACCGGTTTTCCCGGTAATCCGTATTTGAC (site ATAAGGCCTGT),0
9,AGAATGGCATGGACCGGTTTTCCCGGTAATCCGTATTTGCT (site AGAAAGGCTAG),1.89
10,AGAATGGCATGGACCGGTTTTCCCGGTAATCCGTATTTGCT (site AGAACGGCTAG),1.47
11,AGAATGGCATGGACCGGTTTTCCCGGTAATCCGTATTTGCT (site AGAAGGGCTAG),0.34
12,AGAATGGCATGGACCGGTTTTCCCGGTAATCCGTATTTGCT (site AGAATGGCTAG),2.19
13,AGACAGGCATGGACCGGTTTTCCCGGTAATCCGTATTTGCT (site AGAAAGGCTAG),0
14,AGACAGGCATGGACCGGTTTTCCCGGTAATCCGTATTTGCT (site AGACAGGCTAG),2.44
15,AGACAGGCATGGACCGGTTTTCCCGGTAATCCGTATTTGCT (site AGAGAGGCTAG),0
16,AGACAGGCATGGACCGGTTTTCCCGGTAATCCGTATTTGCT (site AGATAGGCTAG),0.555
17,AGACTTGCATGGACCGGTTTTCCCGGTAATCCGTATTTGCA (site AGACTTGCTTG),0
18,AGACTTTCATGGACCGGTTTTCCCGGTAATCCGTATTTGAC (site AGACTTTCTGT),0
19,AGACTTTCATGGACCGGTTTTCCCGGTAATCCGTATTTGAC (site AGCCTTTCTGT),0
20,AGACTTTCATGGACCGGTTTTCCCGGTAATCCGTATTTGAC (site AGGCTTTCTGT),0.503
21,AGACTTTCATGGACCGGTTTTCCCGGTAATCCGTATTTGAC (site AGTCTTTCTGT),0
22,AGAGCATCATGGACCGGTTTTCCCGGTAATCCGTATTTGAA (site AGAGCATCTTT),2.33
23,AGAGCCCCATGGACCGGTTTTCCCGGTAATCCGTATTTGCA (site AGAGCCCCTTG),1.71
24,AGAGGACCATGGACCGGTTTTCCCGGTAATCCGTATTTGGG (site AGAGGACCTCC),0.0119
25,AGAGGACCATGGACCGGTTTTCCCGGTAATCCGTATTTGGG (site CGAGGACCTCC),0.0261

# Reference: the supplement of paper PMC11208160
